Measured values taken from US5110800A, “Derivatives of erythromycylamine” (Eli Lilly and Company, priority 1989, dated 1992).
Converted amounts (≈) assume the structure as drawn. Where two headings read alike, the source gives them in different places.

Key:
Experiment in all cases: MIC, standard agar-dilution assay
Type in all cases: cell-based
[1] = test system: Staphylococcus aureus X1.1; settings: Staphylococcus aureus, X1.1, read-out: minimal inhibitory concentration (MIC)
[2] = test system: Staphylococcus aureus V41; settings: Staphylococcus aureus, V41, penicillin-resistant strain, inducibly erythromycin-resistant, read-out: minimal inhibitory concentration (MIC)
From the text: (§1) In addition to excellent in vitro activity against erythromycin-sensitive bacteria, several members of this new series have shown in vitro activity against erythromycin-resistant strains. These include strains which are inducibly-resistant to erythromycin (S. aureus V41 and X400 and S. epidermidis EPI1) and even strains which are constitutively-resistant (S. epidermidis 270).

[3] = test system: Staphylococcus aureus X400; settings: Staphylococcus aureus, X400, methicillin-resistant strain, inducibly erythromycin-resistant, read-out: minimal inhibitory concentration (MIC)
From the text: as §1

[4] = test system: Staphylococcus epidermidis EPI1; settings: EPI1, read-out: minimal inhibitory concentration (MIC)
From the text: as §1

[5] = test system: Staphylococcus aureus S13E; settings: Staphylococcus aureus, S13E, read-out: minimal inhibitory concentration (MIC)
[6] = test system: Staphylococcus epidermidis 222
[7] = test system: Streptococcus pyogenes C203; settings: Streptococcus pyogenes
[8] = test system: Streptococcus pneumoniae Park I; settings: Streptococcus pneumoniae, read-out: minimal inhibitory concentration (MIC)
[9] = test system: Streptococcus sp. group D X66; settings: Streptococcus, read-out: minimal inhibitory concentration (MIC)
[10] = test system: Streptococcus sp. group D 2041; settings: Streptococcus, read-out: minimal inhibitory concentration (MIC)
[11] = test system: Haemophilus influenzae C.L.; settings: Haemophilus influenzae, read-out: minimal inhibitory concentration (MIC)
[12] = test system: Haemophilus influenzae 76; settings: Haemophilus influenzae, 76, ampicillin-resistant strain, read-out: minimal inhibitory concentration (MIC)
Escherichia coli EC14 = settings: Escherichia coli
[13] = test system: Klebsiella pneumoniae X68; settings: Klebsiella pneumoniae
[14] = test system: Staphylococcus epidermidis 270; settings: Staphylococcus epidermidis, 270; Table IV; constitutively erythromycin-resistant; read-out: minimal inhibitory concentration (MIC)
From the text: as §1

[15] = Staphylococcus epidermidis, 222, read-out: minimal inhibitory concentration (MIC)
[16] = C203, read-out: minimal inhibitory concentration (MIC)
[17] = EC14, Table V, agar dilution, read-out: minimal inhibitory concentration (MIC)
[18] = X68, read-out: minimal inhibitory concentration (MIC)
[19] = X68, Table V, agar dilution, read-out: minimal inhibitory concentration (MIC)
[20] = EC14, read-out: minimal inhibitory concentration (MIC)
[21] = X68, Table IV, agar dilution, read-out: minimal inhibitory concentration (MIC)
[22] = EC14, Table IV, agar dilution, read-out: minimal inhibitory concentration (MIC)

Compound	MIC [1] [µg/mL]	MIC ([2]; Table V) [µg/mL]	MIC ([3]; Table V) [µg/mL]	MIC [4] [µg/mL]	MIC [5] [µg/mL]	MIC [6, 15] [µg/mL]	MIC [7, 16] [µg/mL]	MIC [8] [µg/mL]	MIC [9] [µg/mL]	MIC (Escherichia coli EC14; [17]) [µg/mL]	MIC [13, 19] [µg/mL]	MIC [10] [µg/mL]	MIC [11] [µg/mL]	MIC ([2]; Table IV) [µg/mL]	MIC ([3]; Table IV) [µg/mL]	MIC [14] [µg/mL]	MIC ([12]; Table IV) [µg/mL]	further results
CC[C@H]1OC(=O)[C@H](C)[C@@H](O[C@H]2C[C@@](C)(OC)[C@@H](O)[C@H](C)O2)[C@H](C)[C@@H](O[C@@H]2O[C@H](C)C[C@H](N(C)C)[C@H]2O)[C@](C)(O)C[C@@H](C)[C@H]2[C@H](C)[C@@H](OCN2C(C)CCCN(C)C)[C@]1(C)O (some centres unmarked) [Compound 63, 9-Deoxo-9-[(5-dimethylamino-2-pentyl)amino]-9,11-(N,O)-cyclic-Methylene Adduct of Erythromycin]	8 (≈ 9.3 µM)	> 128	> 128	> 128	8 (≈ 9.3 µM)	8 (≈ 9.3 µM)	0.5 (≈ 0.581 µM)	0.5 (≈ 0.581 µM)	2 (≈ 2.33 µM)	32 (≈ 37.2 µM)	–	–	–	–	–	–	–	MIC ([10]; Table V, agar dilution): 32 µg/mL (≈ 37.2 µM); MIC ([11]; Table V, ampicillin-sensitive strain): 8 µg/mL (≈ 9.3 µM); MIC ([12]; Table V): 8 µg/mL (≈ 9.3 µM); MIC [13, 18]: 128 µg/mL (≈ 149 µM)
CC[C@H]1OC(=O)[C@H](C)[C@@H](O[C@H]2C[C@@](C)(OC)[C@@H](O)[C@H](C)O2)[C@H](C)[C@@H](O[C@@H]2O[C@H](C)C[C@H](N(C)C)[C@H]2O)[C@](C)(O)C[C@@H](C)[C@H](N(C)C(C)C)[C@H](C)[C@@H](O)[C@]1(C)O [Compound 70, 9-Deoxo-9-[(N-methyl-N-isopropyl)amino]erythromycin]	8 (≈ 10.1 µM)	> 128	> 128	> 128	–	8 (≈ 10.1 µM)	0.5 (≈ 0.632 µM)	0.5 (≈ 0.632 µM)	2 (≈ 2.53 µM)	> 128	> 128	–	–	–	–	–	–	–
CCCN1CO[C@@H]2[C@@H](C)[C@@H]1[C@H](C)C[C@@](C)(O)[C@H](O[C@@H]1O[C@H](C)C[C@H](N(C)C)[C@H]1O)[C@@H](C)[C@H](O[C@H]1C[C@@](C)(OC)[C@@H](O)[C@H](C)O1)[C@@H](C)C(=O)O[C@H](CC)[C@@]2(C)O [Compound 59]	–	–	–	> 128	–	0.125 (≈ 0.158 µM)	–	–	0.125 (≈ 0.158 µM)	–	–	–	–	–	–	–	–	–
CC[C@H]1OC(=O)[C@H](C)[C@@H](O[C@H]2C[C@@](C)(OC)[C@@H](O)[C@H](C)O2)[C@H](C)[C@@H](O[C@@H]2O[C@H](C)C[C@H](N(C)C)[C@H]2O)[C@](C)(O)C[C@@H](C)[C@H](N2CCCCC2)[C@H](C)[C@@H](O)[C@]1(C)O [Compound 72, 9-Deoxo-9-(1-piperidinyl)erythromycin]	16 (≈ 19.9 µM)	> 128	> 128	> 128	–	8 (≈ 9.96 µM)	1 (≈ 1.25 µM)	1 (≈ 1.25 µM)	–	> 128	> 128	128 (≈ 159 µM)	2 (≈ 2.49 µM)	–	–	–	–	–
CC[C@H]1OC(=O)[C@H](C)[C@@H](O[C@H]2C[C@@](C)(OC)[C@@H](O)[C@H](C)O2)[C@H](C)[C@@H](O[C@@H]2O[C@H](C)C[C@H](N(C)C)[C@H]2O)[C@](C)(O)C[C@@H](C)[C@H](N(C)C)[C@H](C)[C@@H](O)[C@]1(C)O [Compound 69, 9-Deoxo-9-(dimethylamino)erythromycin]	–	–	–	> 128	–	2 (≈ 2.62 µM)	0.25 (≈ 0.328 µM)	–	0.5 (≈ 0.655 µM)	–	> 128	–	2 (≈ 2.62 µM)	–	–	–	–	MIC (Escherichia coli EC14; [20]): 128 µg/mL (≈ 168 µM)
CC[C@H]1OC(=O)[C@H](C)[C@@H](O[C@H]2C[C@@](C)(OC)[C@@H](O)[C@H](C)O2)[C@H](C)[C@@H](O[C@@H]2O[C@H](C)C[C@H](N(C)C)[C@H]2O)[C@](C)(O)C[C@@H](C)[C@H]2[C@H](C)[C@@H](OCN2C2CCCC2)[C@]1(C)O [Compound 60, 9-Deoxo-9-(cyclopentylamino)-9,11(N,O)-cyclic Methylene Adduct of Erythromycin]	1 (≈ 1.23 µM)	> 128	> 128	> 128	–	1 (≈ 1.23 µM)	0.125 (≈ 0.153 µM)	0.06 (≈ 0.0736 µM)	0.5 (≈ 0.613 µM)	–	–	8 (≈ 9.81 µM)	–	–	–	–	–	–
CC[C@H]1OC(=O)[C@H](C)[C@@H](O[C@H]2C[C@@](C)(OC)[C@@H](O)[C@H](C)O2)[C@H](C)[C@@H](O[C@@H]2O[C@H](C)C[C@H](N(C)C)[C@H]2O)[C@](C)(O)C[C@@H](C)[C@H](NCCOC)[C@H](C)[C@@H](O)[C@]1(C)O [Compound 31, 9-Deoxo-9-[(2-Methoxyethyl)amino]erythromycin]	0.5 (≈ 0.63 µM)	–	–	–	0.5 (≈ 0.63 µM)	–	0.06 (≈ 0.0757 µM)	–	–	–	–	8 (≈ 10.1 µM)	0.5 (≈ 0.63 µM)	> 128	> 128	> 128	2 (≈ 2.52 µM)	MIC ([6]; Staphylococcus epidermidis, 222, Table IV, agar dilution, read-out: minimal inhibitory concentration (MIC)): 0.25 µg/mL (≈ 0.315 µM); MIC ([8]; Table IV, agar dilution): 0.03 µg/mL (≈ 0.0378 µM); MIC ([9]; Table IV, agar dilution): 0.125 µg/mL (≈ 0.158 µM); MIC (Escherichia coli EC14; [20]): 16 µg/mL (≈ 20.2 µM); MIC [13, 21]: 32 µg/mL (≈ 40.4 µM)
CCCN[C@@H]1[C@H](C)[C@@H](O)[C@@H](C)[C@@H](CC)OC(=O)[C@H](C)[C@@H](O[C@H]2C[C@@](C)(OC)[C@@H](O)[C@H](C)O2)[C@H](C)[C@@H](O[C@@H]2O[C@H](C)C[C@H](N(C)C)[C@H]2O)[C@](C)(O)C[C@H]1C [Compound 38]	0.5 (≈ 0.657 µM)	–	–	–	1 (≈ 1.31 µM)	0.5 (≈ 0.657 µM)	0.125 (≈ 0.164 µM)	0.125 (≈ 0.164 µM)	0.125 (≈ 0.164 µM)	–	–	2 (≈ 2.63 µM)	2 (≈ 2.63 µM)	8 (≈ 10.5 µM)	64 (≈ 84.1 µM)	> 128	4 (≈ 5.26 µM)	MIC (Escherichia coli EC14; [22]): 64 µg/mL (≈ 84.1 µM); MIC [13, 18]: 128 µg/mL (≈ 168 µM)
CC[C@H]1OC(=O)[C@H](C)[C@@H](O[C@H]2C[C@@](C)(OC)[C@@H](O)[C@H](C)O2)[C@H](C)[C@@H](O[C@@H]2O[C@H](C)C[C@H](N(C)C)[C@H]2O)[C@](C)(O)C[C@@H](C)[C@H](N(C)C2CCCCC2)[C@H](C)[C@@H](O)[C@]1(C)O [Compound 71, 9-Deoxo-9-[(N-cyclohexyl-N-methyl)amino]erythromycin]	16 (≈ 19.3 µM)	> 128	> 128	> 128	–	8 (≈ 9.63 µM)	1 (≈ 1.2 µM)	0.125 (≈ 0.15 µM)	8 (≈ 9.63 µM)	> 128	> 128	128 (≈ 154 µM)	–	–	–	–	–	–
CCCCCCCCCCN[C@@H]1[C@H](C)[C@@H](O)[C@@H](C)[C@@H](CC)OC(=O)[C@H](C)[C@@H](O[C@H]2C[C@@](C)(OC)[C@@H](O)[C@H](C)O2)[C@H](C)[C@@H](O[C@@H]2O[C@H](C)C[C@H](N(C)C)[C@H]2O)[C@](C)(O)C[C@H]1C [Compound 41]	2 (≈ 2.33 µM)	–	–	–	1 (≈ 1.16 µM)	0.5 (≈ 0.582 µM)	–	–	0.5 (≈ 0.582 µM)	–	–	–	–	4 (≈ 4.66 µM)	4 (≈ 4.66 µM)	8 (≈ 9.31 µM)	4 (≈ 4.66 µM)	MIC ([7]; C203, Table IV, agar dilution, read-out: minimal inhibitory concentration (MIC)): 0.03 µg/mL (≈ 0.0349 µM); MIC ([8]; Table IV, agar dilution): 0.03 µg/mL (≈ 0.0349 µM); MIC ([10]; Table IV, agar dilution): 4 µg/mL (≈ 4.66 µM); MIC ([11]; Table IV, ampicillin-sensitive strain): 8 µg/mL (≈ 9.31 µM); MIC (Escherichia coli EC14; [22]): > 128 µg/mL; MIC [13, 21]: > 128 µg/mL
